Results on 2 compounds are retold here after US20030236439A1, “Non-steroidal analogs of 2-methoxyestradiol” (priority 2002, published 2003).

Assay [1] has as its system chick embryo chorioallantoic membrane. Briefly: chick embryo chorioallantoic membrane (CAM) assay. Format: in vivo. Particulars: 100 μg methylcellulose disk, after 48 hours. The source says:
Anti-proliferative activity can be evaluated in situ by testing the ability of the new non-steroidal estradiol analogs to inhibit the proliferation of new blood vessel cells (angiogenesis). A suitable assay is the chick embryo chorioallantoic membrane (CAM) assay described by Crum et al. Science 230:1375 (1985). See also, U.S. Pat. No. 5,001,116, hereby incorporated by reference, which describes the CAM assay. Briefly, fertilized chick embryos are removed from their shell on day 3 or 4, and a methylcellulose disc containing the drug is implanted on the chorioallantoic membrane. The embryos are examined 48 hours later and, if a clear avascular zone appears around the methylcellulose disc, the diameter of that zone is measured.

A further assay relates to MCF-7 cell. Conditions: in vitro, over a wide range of concentrations; cited from earlier work.
In assay [2] the test system is vascular endothelial cell proliferation. Conditions: vascular endothelial vs tumor cell proliferation; cited from earlier work.

In the case of `COc1cc2c(cc1O)CC[C@@H]1[C@@H]2CC[C@]2(C)[C@@H](O)CC[C@@H]12` [2-methoxyestradiol], the “effect on cell mitosis and growth of new blood vessels (avascular zone)” value in assay [1] is “inhibit cell mitosis and the growth of new blood vessels”. Besides, the estrogenic activity entry in the assay with MCF-7 cell is reported as “not estrogenic”. On to `CO[C@@H]1[C@H](OC(=O)NC(=O)CCl)CC[C@]2(CO2)[C@H]1[C@@]1(C)O[C@@H]1CC=C(C)C` [AGM-1470], for which the “half-maximal inhibition of endothelial cell proliferation at lower concentration than tumor cell proliferation” value in assay [2] was 4 logs.
